# Assay results: US8809328B2, “Imidazole derivative” (National University Corporation Shizuoka University, priority 2011, dated 2014)
# Key:
# Type in all cases: in vivo
# [1] = tested on: rice (Nipponbare) (Oryza sativa L. cv. Nipponbare); assay: Influence of AHX or AOH on rice seedlings in test tube culture fluid (Example 6); conditions: 50, 200 or 1000 μM in culture fluid, 28° C., one week, FIG. 4
# Experimental: Sterilized seeds of rice (Nipponbare) (Oryza sativa L. cv. Nipponbare) were allowed to sprout at 28° C. in three days. The sprouted seeds (four seeds per test tube) were cultivated in a test tube, in which a control culture fluid or a culture fluid to which AHX or AOH was added to different concentrations and was placed, at 28° C. for a week. AOH that was produced according to the method of Example 5 was used. The control culture fluid comprises 0.5 mM of NH4NO3, 0.3 mM of Na2HPO4, 0.15 mM of K2SO4, 0.2 mM of MgCl2, 0.1 mM of CaCl2, 23 μM of Fe-ethylenediaminetetraacetic acid (Fe-EDTA), 25 μM of H3BO3, 4.5 μM of MnSO4, 0.15 μM of CuSO4, 0.35 μM of ZnSO4, and 0.05 μM of Na2MoO4. As for the culture fluids containing AHX or AOH, AHX or AOH is added to the above described control culture fluids such that the final concentration becomes 50 μM, 200 μM or 1000 μM. The culture fluid was replaced with new culture fluid every other day. After cultivation, the length of shoots and roots was measured.
# [2] = tested on: rice (Nipponbare) (Oryza sativa L. cv. Nipponbare); assay: Influence of AOH and 3-methyl-AOH on rice seedlings in test tube culture fluid (Example 12); conditions: 0.2 mM in culture fluid, 28° C., one week, FIG. 8
# Experimental: Sterilized seeds of rice (Nipponbare) (Oryza sativa L. cv. Nipponbare) were allowed to sprout at 28° C. in three days. The sprouted seeds (four seeds per test tube) were cultivated in a test tube, in which a control culture fluid, a culture fluid to which 0.2 mM of AOH was added, or a culture fluid to which 0.2 mM of 3-methyl-AOH was added and was placed, at 28° C. for a week. The control culture fluid comprises 0.5 mM of NH4NO3, 0.3 mM of Na2HPO4, 0.15 mM of K2SO4, 0.2 mM of MgCl2, 0.1 mM of CaCl2, 23 μM of Fe-ethylenediaminetetraacetic acid (Fe-EDTA), 25 μM of H3BO3, 4.5 μM of MnSO4, 0.15 μM of CuSO4, 0.35 μM of ZnSO4, and 0.05 μM of Na2MoO4. The culture fluid was replaced with new culture fluid every other day. After cultivation, the length of shoots and roots was measured. […] (In FIG. 8, “*” indicates P value <0.05, and “**” indicates P value <0.01. n=16.). In contrast, 3-methyl-AOH gave no influence on extension of the shoots.
# [3] = tested on: rice (Nipponbare) (Oryza sativa L. cv. Nipponbare); assay: Influence of AOH on soil cultivation of rice (pot cultivation)
# Experimental: Rice (Nipponbare) (Oryza sativa L. cv. Nipponbare) was sown on Apr. 29, 2011, and each of grown seedlings was transplanted to a pot (1/5000a pot) filled with soil which contains a fertilizer comprising N (1440 mg), P2O5 (12 mg), K2O (760 mg) and CaO (806 mg) on June 7th, and was soil-cultivated in a greenhouse (28° C.) under any one of seven types of cultivation conditions of the following (1) to (7) until September 24th. Supply of water was performed by providing two liter of tap water or tap water to which AOH was added every week (see below).
# (1) Tap water was provided during pot cultivation.
# (2) Tap water to which AOH was added such that the final concentration became 50 μM was provided for two weeks (from June 7th to June 20th) in the planting stage. Tap water was provided in the other period.
# (3) Tap water to which AOH was added such that the final concentration became 50 μM was provided for two weeks (from July 4th to July 17th) in the tillering stage. Tap water was provided in the other period.
# (4) Tap water added to which AOH was added such that the final concentration became 50 μM was provided for two weeks (from July 25th to August 7th) in the topdressing stage for panicle formation. Tap water was provided in the other period.
# (5) Tap water added to which AOH was added such that the final concentration became 50 μM was provided for two weeks (from August 15th to August 28th) in the topdressing stage for ripening. Tap water was provided in the other period. […]
# (7) Tap water to which AOH was added such that the final concentration became 50 μM was provided during pot cultivation.
# Brown rice and plant bodies soil-cultivated were dried at 30° C. for 15 days, and brown rice weight (both of weight per plant and weight per 100 brown rice grains), panicle length, culm length, number of panicles, number of tillers, and aerial part weight were measured.
# [4] = 50 μM AOH, topdressing stage for panicle formation
# [5] = 50 μM AOH, topdressing stage for ripening
# [6] = applying AOH all the time, vs control
smiles,measurement,setting,value
"O=c1[nH]c2nn[nH]c(=O)c2[nH]1 [AOH, 3H-imidazo[4,5-d][1,2,3]triazin-4,6(5H,7H)-dione]",Extension of shoots and roots,[1],promoted extension of shoots and roots concentration-dependently
same,Extension of roots,[2],had extension activity for roots
same,Aerial part,"[3]; 5 μM AOH, all the time",151 ± 6.19 g
same,Brown rice weight (g/100 grains),"[3]; 5 μM AOH, all the time",2.13 ± 0.09 g/100 grains
same,Brown rice weight (g/plant),"[3]; 5 μM AOH, all the time",59.3 ± 2.27 g/plant
same,Culm length,"[3]; 5 μM AOH, all the time",89.7 ± 6.40 cm
same,Increasing rate of aerial part relative to control,"[3]; 5 μM AOH, all the time",30%
same,Increasing rate of brown rice weight per plant relative to control,"[3]; 5 μM AOH, all the time",42%
same,Increasing rate of number of panicles relative to control,"[3]; 5 μM AOH, all the time",24%
same,Number of tillers,"[3]; 5 μM AOH, all the time",37.9 ± 3.71
same,Panicle length,"[3]; 5 μM AOH, all the time",24.5 ± 2.24 cm
same,number of panicles,"[3]; 5 μM AOH, all the time",32.8 ± 2.48
same,Aerial part,"[3]; 50 μM AOH, all the time",147 ± 9.63 g
same,Brown rice weight (g/100 grains),"[3]; 50 μM AOH, all the time",2.15 ± 0.16 g/100 grains
same,Brown rice weight (g/plant),"[3]; 50 μM AOH, all the time",58.2 ± 3.76 g/plant
same,Culm length,"[3]; 50 μM AOH, all the time",92.3 ± 5.64 cm
same,Increasing rate of aerial part relative to control,"[3]; 50 μM AOH, all the time",27%
same,Increasing rate of brown rice weight per plant relative to control,"[3]; 50 μM AOH, all the time",40%
same,Increasing rate of number of panicles relative to control,"[3]; 50 μM AOH, all the time",23%
same,Number of tillers,"[3]; 50 μM AOH, all the time",35.7 ± 4.15
same,Panicle length,"[3]; 50 μM AOH, all the time",24.4 ± 1.96 cm
same,number of panicles,"[3]; 50 μM AOH, all the time",32.7 ± 4.03
same,Aerial part,"[3]; 50 μM AOH, planting stage",125 ± 21.2 g
same,Brown rice weight (g/100 grains),"[3]; 50 μM AOH, planting stage",2.11 ± 0.07 g/100 grains
same,Brown rice weight (g/plant),"[3]; 50 μM AOH, planting stage",46.6 ± 9.43 g/plant
same,Culm length,"[3]; 50 μM AOH, planting stage",97.1 ± 12.1 cm
same,Increasing rate of brown rice weight per plant relative to control,"[3]; 50 μM AOH, planting stage",12%
same,Number of tillers,"[3]; 50 μM AOH, planting stage",34.6 ± 2.70
same,Panicle length,"[3]; 50 μM AOH, planting stage",23.5 ± 1.61 cm
same,number of panicles,"[3]; 50 μM AOH, planting stage",27.8 ± 4.26
same,Aerial part,"[3]; 50 μM AOH, tillering stage",112 ± 30.0 g
same,Brown rice weight (g/100 grains),"[3]; 50 μM AOH, tillering stage",2.12 ± 0.12 g/100 grains
same,Brown rice weight (g/plant),"[3]; 50 μM AOH, tillering stage",42.3 ± 12.2 g/plant
same,Culm length,"[3]; 50 μM AOH, tillering stage",94.5 ± 4.63 cm
same,Number of tillers,"[3]; 50 μM AOH, tillering stage",30.9 ± 3.67
same,Panicle length,"[3]; 50 μM AOH, tillering stage",26.2 ± 1.03 cm
same,number of panicles,"[3]; 50 μM AOH, tillering stage",23.0 ± 5.44
same,Aerial part,[3]; [4],134 ± 16.5 g
same,Brown rice weight (g/100 grains),[3]; [4],2.12 ± 0.07 g/100 grains
same,Brown rice weight (g/plant),[3]; [4],53.7 ± 3.59 g/plant
same,Culm length,[3]; [4],90.2 ± 6.15 cm
same,Increasing rate of brown rice weight per plant relative to control,[3]; [4],29%
same,Number of tillers,[3]; [4],31.6 ± 3.60
same,Panicle length,[3]; [4],24.5 ± 1.61 cm
same,number of panicles,[3]; [4],30.5 ± 4.50
same,Aerial part,[3]; [5],131 ± 13.3 g
same,Brown rice weight (g/100 grains),[3]; [5],2.18 ± 0.08 g/100 grains
same,Brown rice weight (g/plant),[3]; [5],53.2 ± 2.61 g/plant
same,Culm length,[3]; [5],92.8 ± 3.98 cm
same,Increasing rate of brown rice weight per plant relative to control,[3]; [5],28%
same,Number of tillers,[3]; [5],31.4 ± 3.91
same,Panicle length,[3]; [5],24.0 ± 2.07 cm
same,number of panicles,[3]; [5],28.8 ± 4.67
same,aerial part weight,[3]; [6],increased more than the control
same,number of panicles,[3]; [6],increased more than the control
same,brown rice weight per plant,"[3]; applying AOH in the topdressing stage for panicle formation or later, vs control",increased more than the control
